The results in this text go back to paper PMC3038857, “Using Nuclear Receptor Activity to Stratify Hepatocarcinogens” (PLoS ONE, 2011).

In data set [1] the target is T1, CAR (NR1I3) (Homo sapiens, UniProt Q14994).
T1 sequence (Q14994 1-352): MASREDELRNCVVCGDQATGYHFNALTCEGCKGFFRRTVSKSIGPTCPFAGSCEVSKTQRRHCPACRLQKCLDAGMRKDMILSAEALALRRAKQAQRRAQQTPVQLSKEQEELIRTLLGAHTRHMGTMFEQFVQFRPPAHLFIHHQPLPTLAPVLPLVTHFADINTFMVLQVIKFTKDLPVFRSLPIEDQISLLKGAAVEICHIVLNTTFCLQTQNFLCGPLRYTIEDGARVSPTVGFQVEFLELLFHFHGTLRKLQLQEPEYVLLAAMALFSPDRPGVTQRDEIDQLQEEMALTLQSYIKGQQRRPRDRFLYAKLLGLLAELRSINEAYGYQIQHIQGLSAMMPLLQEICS
As to the kind of experiment: ATG_CAR_TRANS: Factorial reporter gene assay (HepG2). The class given is cell-based. Details: endogenous in cells; host or cells: HepG2. Particulars: HepG2; scale not given, looks like -log10 of molar active concentration; 0 = no activity. On the procedure: (§1) A multiple reporter transcription unit (MRTU) library consisting of 48 transcription factor binding sites was transfected into the HepG2 human liver hepatoma cell line. In addition to the cis-acting reporter genes (CIS), a modification of the approach was used to generate a trans-system (TRANS) with a mammalian one-hybrid assay consisting of an additional 25 MRTU library reporting the activity of nuclear receptor super-family members. […] These assays were performed by Attagene Inc. (Morrisville NC) under contract to EPA.
(§2) In addition to the cis-acting reporter genes (CIS), a modification of the approach was used to generate a trans-system (TRANS) with a mammalian one-hybrid assay consisting of an additional 25 MRTU library reporting the activity of nuclear receptor super-family members. […] Chemicals were then tested in the CIS and TRANS assays at seven concentrations starting at the MTC and followed by three-fold serial dilutions. These assays were performed by Attagene Inc. (Morrisville NC) under contract to EPA. Detailed description of the methods, data and analysis methods for this dataset will be presented in a separate publication.

The target in data set [2] is T2, PPARD (peroxisome proliferator-activated receptor delta) (Homo sapiens, UniProt Q03181).
T2 construct: expressed in transfected cells; host or cells: HepG2
T2 sequence (Q03181 1-441): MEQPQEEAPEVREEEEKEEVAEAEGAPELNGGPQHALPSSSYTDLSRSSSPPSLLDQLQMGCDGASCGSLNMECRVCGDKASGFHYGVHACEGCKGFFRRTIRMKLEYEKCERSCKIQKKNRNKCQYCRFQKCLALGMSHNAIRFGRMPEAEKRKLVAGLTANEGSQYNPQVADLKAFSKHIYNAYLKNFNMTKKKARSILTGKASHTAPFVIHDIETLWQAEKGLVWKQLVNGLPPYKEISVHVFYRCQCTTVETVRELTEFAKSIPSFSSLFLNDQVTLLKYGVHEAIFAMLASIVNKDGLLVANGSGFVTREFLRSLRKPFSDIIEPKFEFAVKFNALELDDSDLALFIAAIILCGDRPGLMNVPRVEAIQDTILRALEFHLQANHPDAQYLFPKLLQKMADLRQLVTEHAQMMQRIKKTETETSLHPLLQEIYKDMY
As to the kind of experiment: ATG_PPARd_TRANS: Factorial reporter gene assay (HepG2). The format is cell-based. Details: scale not given here. Particulars: scale not given, looks like -log10 of molar active concentration, 0 = no activity. On the procedure: as §1, §2

Data set [3] deals with T1, CAR (NR1I3). Kind of data set: NVS_NR_hCAR_Agonist: Human CAR CITCO Agonist (cell-free HTS). The class given is biochemical. The note with it: scale not given, looks like -log10 of molar active concentration, 0 = no activity. From the text:
These are a collection of biochemical assays measuring binding constants and enzyme inhibition values. Chemicals were initially screened at a single concentration in duplicate wells at a concentration of 10 [drawing 63] M for cytochrome P-450 assays and 25 [drawing 64] M for all others. […] These assays were run by Caliper Life Sciences (Hanover, MD) under contract to EPA. Short assay descriptions are available at: http://www.caliperls.com/products/contract-research/in-vitro/.
Cell-free HTS Assays: A collection of biochemical assays measuring binding constants and enzyme inhibition values. […] These assays were run by Caliper Life Sciences (Hanover, MD) under contract to EPA. Short assay descriptions are available at http://www.caliperls.com/products/contract-research/in-vitro/. Values for all endpoints were imported into GeneData Screener (Basel, Switzerland) and normalised to solvent controls from the same plate as the tested compounds and expressed as percent of neutral control. Concentration-response curves were fit in GeneData Screener (Basel, Switzerland) Condeseo module using the Hill equation and AC50 values were determined. […] Detailed description of the methods, data and analysis methods for this dataset are described in a separate publication.

For data set [4], the target named is T1, CAR (NR1I3). As to the kind of experiment: ATG_PBREM_CIS: Factorial reporter gene assay (HepG2). The format is cell-based. The arrangement: endogenous in cells; host or cells: HepG2; scale not given here. Particulars: HepG2; scale not given, looks like -log10 of molar active concentration; 0 = no activity. Summed up:
(§3)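 Seven concentrations per chemical, three-fold dilutions down from the MTC, were tested in HepG2 hepatoma cells. Those cells carried a multiple reporter transcription unit library, read either as cis transcription-factor-site reporters or as a trans mammalian one-hybrid panel for nuclear receptors.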

Data set [5] concerns CYP2B6. Kind of data set: CLZD_CYP2B6: Change in expression of CYP2B6 (primary human hepatocytes). The class given is cell-based. Particulars: 24 hr, scale not given, looks like -log10 of molar active concentration, 0 = no activity. Summed up: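 Cultured primary human hepatocytes treated with chemicals for 6, 24 or 48 hr across five concentrations spanning 0.004-40 µM, then transcript level measured by quantitative nuclease protection in a multiplexed format.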

Data set [6] addresses T3, ESR1 (estrogen receptor 1) (Homo sapiens, UniProt P03372).
T3 construct: expressed in transfected cells; host or cells: HepG2
As to the kind of experiment: ATG_ERE_CIS: Factorial reporter gene assay (HepG2). The format is cell-based. The note with it: HepG2; scale not given, looks like -log10 of molar active concentration; 0 = no activity. An outline of the steps:
as §3

T3 sequence (P03372 whole entry): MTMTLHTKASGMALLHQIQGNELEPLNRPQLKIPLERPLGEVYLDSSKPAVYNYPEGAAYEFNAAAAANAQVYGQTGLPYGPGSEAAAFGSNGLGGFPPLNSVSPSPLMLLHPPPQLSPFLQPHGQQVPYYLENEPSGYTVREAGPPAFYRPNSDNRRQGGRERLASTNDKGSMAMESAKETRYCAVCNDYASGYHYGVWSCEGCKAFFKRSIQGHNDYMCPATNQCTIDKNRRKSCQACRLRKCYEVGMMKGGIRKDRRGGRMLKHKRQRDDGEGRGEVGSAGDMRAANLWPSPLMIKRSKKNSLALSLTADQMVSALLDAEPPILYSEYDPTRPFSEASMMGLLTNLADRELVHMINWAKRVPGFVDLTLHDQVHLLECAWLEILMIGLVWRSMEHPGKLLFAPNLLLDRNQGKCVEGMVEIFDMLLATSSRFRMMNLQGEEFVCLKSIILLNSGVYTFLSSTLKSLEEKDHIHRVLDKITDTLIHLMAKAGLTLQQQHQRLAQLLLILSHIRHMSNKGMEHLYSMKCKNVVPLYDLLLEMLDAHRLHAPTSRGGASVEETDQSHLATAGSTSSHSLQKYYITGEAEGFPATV

As to `CC(C)N1C(=O)N(c2ccccc2)CS/C1=N\C(C)(C)C` [r45], the ATG_CAR_TRANS in data set [1] is on record as 0. For the same compound, the ATG_PPARd_TRANS in data set [2] is given as 0. This compound came in with an NVS_NR_hCAR_Agonist in data set [3] of 0. In data set [4], this compound had an ATG_PBREM_CIS of 0. Besides, the CLZD_CYP2B6_24 in data set [5] is 5.247. The ATG_ERE_CIS in data set [6] was 0.
Turning to `CCCCOCN(C(=O)CCl)c1c(CC)cccc1CC` [r46], the ATG_CAR_TRANS in data set [1] came to 0. This compound displayed an ATG_PPARd_TRANS in data set [2] of 0. The same compound gave an NVS_NR_hCAR_Agonist in data set [3] of 0. The same compound displayed an ATG_PBREM_CIS in data set [4] of 0. In data set [5], this compound came in with a CLZD_CYP2B6_24 of 5.29. For the same compound, the ATG_ERE_CIS in data set [6] came to 0.
Regarding `CCSC(=O)N(CC(C)C)CC(C)C` [r49], in data set [1], the ATG_CAR_TRANS was 0. The ATG_PPARd_TRANS in data set [2] is reported as 0. Besides, the NVS_NR_hCAR_Agonist in data set [3] came to 0. Moreover, the ATG_PBREM_CIS in data set [4] amounted to 0. This compound also came in with a CLZD_CYP2B6_24 in data set [5] of 6.583. Also, the ATG_ERE_CIS in data set [6] was determined as 0.
`O=C1C2CC=CCC2C(=O)N1SC(Cl)(Cl)Cl` (stereo not drawn) [r51] returned an ATG_CAR_TRANS in data set [1] of 0. In data set [2], this compound yielded an ATG_PPARd_TRANS of 0. In data set [3], this compound registered an NVS_NR_hCAR_Agonist of 0. This compound showed an ATG_PBREM_CIS in data set [4] of 0. Besides, the CLZD_CYP2B6_24 in data set [5] was 0. This compound showed an ATG_ERE_CIS in data set [6] of 0.
`CCOC(=O)C(Cl)Cc1cc(-n2nc(C)n(C(F)F)c2=O)c(F)cc1Cl` (stereo not drawn) [r54] displayed an ATG_CAR_TRANS in data set [1] of 0. Also, the ATG_PPARd_TRANS in data set [2] is listed as 0. In addition, the NVS_NR_hCAR_Agonist in data set [3] was 0. The compound also showed an ATG_PBREM_CIS in data set [4] of 0. The CLZD_CYP2B6_24 in data set [5] amounted to 5.057. In data set [6], this compound yielded an ATG_ERE_CIS of 0.
In turn, `Nc1cnn(-c2ccccc2)c(=O)c1Cl` [r56] displayed an ATG_CAR_TRANS in data set [1] of 0. The compound further came in with an ATG_PPARd_TRANS in data set [2] of 0. This compound came in with an NVS_NR_hCAR_Agonist in data set [3] of 0. Moreover, the ATG_PBREM_CIS in data set [4] is listed as 0. In addition, in data set [5], the CLZD_CYP2B6_24 was found to be 0. Further, the ATG_ERE_CIS in data set [6] came to 0.
As to `N#Cc1c(Cl)c(Cl)c(Cl)c(C#N)c1Cl` [r58], the ATG_CAR_TRANS in data set [1] is listed as 0. Also, in data set [2], the ATG_PPARd_TRANS turned out to be 0. Further, the NVS_NR_hCAR_Agonist in data set [3] came to 0. The same compound had an ATG_PBREM_CIS in data set [4] of 0. Further, the CLZD_CYP2B6_24 in data set [5] is on record as 0. The same compound showed an ATG_ERE_CIS in data set [6] of 0.
